# Columns and labels:
# Cytochrome P450 2C9 = Cytochrome P450 2C9 (Homo sapiens, UniProt P11712); test: (§1) All assays are carried out on a robotic system in 96 well plates. The final incubation volume contains TRIS buffer (0.1 M), MgCl2 (5 mM), human liver microsomes (0.1 mg/mL), diclofenac (10 μM) and the test compound at five different concentrations or no compound (high control) in duplicate (e.g., highest concentration 10-50 μM with subsequent serial 1:4 dilutions). Following a short preincubation period, reactions are started with the cofactor (NADPH, 1 mM) and stopped by cooling the incubation down to 8° C. and subsequently by addition of one volume of acetonitrile. An internal standard solution the stable isotope 13C6-hydroxydiclofenac is added after quenching of incubations. Peak area analyte (=metabolite formed) and internal standard is determined by LC-MS/MS. The resulting peak area ratio analyte to internal standard in these incubations is compared to a control activity containing no test compound. Within each of the assay runs, the IC50 of a positive control inhibitor (sulfaphenazole) is determined.
# Cytochrome P450 2C9, sequence (P11712 whole entry): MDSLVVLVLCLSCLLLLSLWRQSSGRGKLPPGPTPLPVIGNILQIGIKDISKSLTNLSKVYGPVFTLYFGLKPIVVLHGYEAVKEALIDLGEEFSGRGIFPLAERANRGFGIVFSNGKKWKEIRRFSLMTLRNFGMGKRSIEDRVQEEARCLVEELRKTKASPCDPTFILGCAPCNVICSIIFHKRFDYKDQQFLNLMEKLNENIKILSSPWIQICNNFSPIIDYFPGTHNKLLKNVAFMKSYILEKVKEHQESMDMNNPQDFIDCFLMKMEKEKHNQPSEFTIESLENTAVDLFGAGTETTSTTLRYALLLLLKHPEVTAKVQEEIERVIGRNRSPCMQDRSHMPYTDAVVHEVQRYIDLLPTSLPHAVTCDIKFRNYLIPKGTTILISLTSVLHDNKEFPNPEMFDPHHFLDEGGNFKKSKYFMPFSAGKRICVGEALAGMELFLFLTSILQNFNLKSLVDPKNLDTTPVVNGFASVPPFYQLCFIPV
# Cytochrome P450 2C8 = target: T1, Cytochrome P450 2C8 (Homo sapiens, UniProt P10632); test: as §1, with “microsomes (0.05” for “microsomes (0.1”, “mg/mL), amodiaquine (1” for “mg/mL), diclofenac (10”, “duplicate (e.g.” for “duplicate (e.g.,”, “standard solution¿the” for “standard solution the”, “isotope d5-desethylamodiaquine” for “isotope 13C6-hydroxydiclofenac”, “inhibitor (Montelukast)” for “inhibitor (sulfaphenazole)”
# T1 sequence (P10632 whole entry): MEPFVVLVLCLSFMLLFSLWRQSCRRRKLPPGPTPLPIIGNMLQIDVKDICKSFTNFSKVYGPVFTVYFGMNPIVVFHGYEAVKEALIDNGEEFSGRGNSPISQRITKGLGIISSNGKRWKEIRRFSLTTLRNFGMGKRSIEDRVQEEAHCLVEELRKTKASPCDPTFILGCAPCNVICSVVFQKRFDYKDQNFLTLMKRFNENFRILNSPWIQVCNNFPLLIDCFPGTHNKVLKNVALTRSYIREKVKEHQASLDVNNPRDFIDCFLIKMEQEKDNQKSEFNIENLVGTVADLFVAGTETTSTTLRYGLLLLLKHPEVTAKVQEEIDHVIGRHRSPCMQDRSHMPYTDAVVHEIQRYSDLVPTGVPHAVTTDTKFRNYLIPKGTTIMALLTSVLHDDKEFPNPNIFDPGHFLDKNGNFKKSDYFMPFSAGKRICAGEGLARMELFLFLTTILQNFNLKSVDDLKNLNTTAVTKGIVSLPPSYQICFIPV
IC50 (Cytochrome P450 2C9) [µM],IC50 (Cytochrome P450 2C8) [µM],Compound
31,10,Cc1cc(C(=O)NCC(C)(C)O)cc(C)c1-c1ccc(F)c2c1CC[C@H]2Nc1ccc([C@H]2C[C@@H]2C(=O)O)nc1
7,5,Cc1cccc(C)c1-c1ccc(F)c2c1CC[C@H]2Nc1ccc([C@H]2C[C@@H]2C(=O)O)nc1
10,9,Cc1c(C#N)cccc1-c1ccc(F)c2c1CC[C@H]2Nc1ccc([C@H]2C[C@@H]2C(=O)O)nc1

# Reference: ChEMBL document CHEMBL5725871, “Indanylaminopyridylcyclopropanecarboxylic acids, pharmaceutical compositions and uses thereof” (2018)
